Literature values as cited in PubChem BioAssay AID1259409 (Chemical Carcinogenesis Research Information System (CCRIS), 2018).

Test system: rodent chemically induced tumor inhibition, incidence and multiplicity
Assay: CCRIS tumor inhibitor studies

## CCCCC1OC(=O)c2ccccc21 (configuration not stated)
Carcinogen: BENZO[A]PYRENE, 50-32-8, Dose [Inhibitor]: 0, 20 MG 3/WK FOR 4 WK ON DAYS OTHER THAN THE CARCINOGEN TREATMENT (STUDY DURATION: 20 WK), Route [Inhibitor]: GAVAGE, Species: MOUSE, Strain/Sex: STRAIN-A/FEMALE, Target Tissue: Type of Lesion: FORESTOMACH: TUMOR, Dose [Carcinogen]: 1 MG IN 0.2 ML COTTONSEED OIL 2/WK FOR 4 WK, Promoter: NONE USED
  tumour outcome (control, treated, inhibition, significance): 13/19 (68%), 6/20 (30%), 56%, p<0.005

## NCc1cc(=O)[nH]o1
Carcinogen: AZOXYMETHANE, 25843-45-2, Dose [Inhibitor]: 0, 0.5 MG/KG IN 2 ML/KG 0.9% SALINE 1/2 D CONCURRENTLY WITH CARCINOGEN AND CONTINUING FOR STUDY DURATION (STUDY DURATION, Route [Inhibitor]: INTRAPERITONEAL, Species: RAT, Strain/Sex: WISTAR/MALE, Target Tissue: Type of Lesion: COLON: ADENOMA, Dose [Carcinogen]: 7.4 MG/KG IN 0.9% SALINE 1/WK FOR 10 WK, Promoter: NONE USED
  tumour outcome (control, treated, inhibition, significance): 3/17 (18%), 8/19 (42%), -133%, not significant
Carcinogen: N-METHYL-N'-NITRO-N-NITROSOGUANIDINE, 70-25-7, Dose [Inhibitor]: 0, 0.25 MG/KG IN NACL INJECTED 1/2 D FOR DURATION OF STUDY BEGINNING 1 WK POST CARCINOGEN DOSE (STUDY DURATION: 52 WK), Route [Inhibitor]: INTRAPERITONEAL, Species: RAT, Strain/Sex: WISTAR/MALE, Target Tissue: Type of Lesion: STOMACH: ADENOCARCINOMA, Dose [Carcinogen]: 50 UG/ML IN DRINKING WATER FOR 25 WK, Promoter: NONE USED
  tumour outcome (control, treated, inhibition, significance): 13/19 (68%), 12/20 (60%), 12%, not significant
Carcinogen: N-METHYL-N'-NITRO-N-NITROSOGUANIDINE, 70-25-7, Dose [Inhibitor]: 0, 0.5 MG/KG BW 1/2 D FOR DURATION OF STUDY BEGINNING 1 WK POST LAST CARCINOGEN DOSE (STUDY DURATION: 52 WK), Route [Inhibitor]: INTRAPERITONEAL, Species: RAT, Strain/Sex: SHR/MALE, Target Tissue: Type of Lesion: STOMACH: ADENOCARCINOMA, Dose [Carcinogen]: 25 UG/ML IN DRINKING WATER FOR 25 WK, Promoter: NONE USED
  tumour outcome (control, treated, inhibition, significance): 10/20 (50%), 3/20 (15%), 70%, p<0.05
Carcinogen: N-METHYL-N'-NITRO-N-NITROSOGUANIDINE, 70-25-7, Dose [Inhibitor]: 0, 0.5 MG/KG BW 1/2 D FOR DURATION OF STUDY BEGINNING 1 WK POST LAST CARCINOGEN DOSE (STUDY DURATION: 52 WK), Route [Inhibitor]: INTRAPERITONEAL, Species: RAT, Strain/Sex: WISTAR/MALE, Target Tissue: Type of Lesion: STOMACH: ADENOCARCINOMA, Dose [Carcinogen]: 25 UG/ML IN DRINKING WATER FOR 25 WK, Promoter: NONE USED
  tumour outcome (control, treated, inhibition, significance): 1/14 (7%), 0/15 (0%), 100%, not significant
Carcinogen: N-METHYL-N'-NITRO-N-NITROSOGUANIDINE, 70-25-7, Dose [Inhibitor]: 0, 0.5 MG/KG IN NACL INJECTED 1/2 D FOR DURATION OF STUDY BEGINNING 1 WK POST CARCINOGEN DOSE (STUDY DURATION: 52 WK), Route [Inhibitor]: INTRAPERITONEAL, Species: RAT, Strain/Sex: WISTAR/MALE, Target Tissue: Type of Lesion: STOMACH: ADENOCARCINOMA, Dose [Carcinogen]: 50 UG/ML IN DRINKING WATER FOR 25 WK, Promoter: NONE USED
  tumour outcome (control, treated, inhibition, significance): 13/19 (68%), 12/18 (67%), 2%, not calculated

## CCOC(=O)/C=C(C)/C=C/C=C(C)/C=C/c1c(C)cc(OC)c(C)c1C
Carcinogen: 7,12-DIMETHYLBENZ[A]ANTHRACENE, 57-97-6, Dose [Inhibitor]: 140 NMOL IN 0.2 ML ACETONE 2/WK (D 1 AND D 4 OF EACH WK) 1 HR BEFORE EACH PROMOTER APPLICATION STARTING 14 D AFTER CARCI, Route [Inhibitor]: DERMAL, Species: MOUSE, Strain/Sex: CD-1/FEMALE, Target Tissue: Type of Lesion: SKIN: PAPILLOMA, Dose [Carcinogen]: 0.2 UMOL IN 0.2 ML ACETONE ONCE, Promoter: 12-O-TETRADECANOYLPHORBOL-13-ACETATE, 16561-29-8
  tumour outcome (control, treated, inhibition, significance): 90%, 38%, 58%, not calculated
Carcinogen: TRANS-5-AMINO-3-[2-(5-NITRO-2-FURYL)VINYL]-1,2,4-OXADIAZOLE;SQL8506, 28754-68-9, Carcinogen: TRANS-5-AMINO-3-[2-(5-NITRO-2-FURYL)VINYL]-1,2,4-OXADIAZOLE;SQL8506, 28754-68-9, Dose [Inhibitor]: 75 MG/KG 18 HR BEFORE THE 1ST DOSE OF EACH CARCINOGEN TREATMENT (STUDY DURATION: LIFETIME), Route [Inhibitor]: ORAL, Species: MOUSE, Strain/Sex: CD-1/FEMALE, Target Tissue: Type of Lesion: HEMATOPOIETIC SYSTEM: MYELOID LEUKEMIA, Dose [Carcinogen]: 1 G/KG 2/D FOR 5 D EVERY 4 WK FOR 3 COURSES OF TREATMENT, Promoter: NONE USED
  tumour outcome (control, treated, inhibition, significance): 7/137 (5%), 0/44 (0%), 100%, not calculated
Carcinogen: TRANS-5-AMINO-3-[2-(5-NITRO-2-FURYL)VINYL]-1,2,4-OXADIAZOLE;SQL8506, 28754-68-9, Carcinogen: TRANS-5-AMINO-3-[2-(5-NITRO-2-FURYL)VINYL]-1,2,4-OXADIAZOLE;SQL8506, 28754-68-9, Dose [Inhibitor]: 75 MG/KG 18 HR BEFORE THE 1ST DOSE OF EACH CARCINOGEN TREATMENT (STUDY DURATION: LIFETIME), Route [Inhibitor]: ORAL, Species: MOUSE, Strain/Sex: CD-1/FEMALE, Target Tissue: Type of Lesion: LYMPHOID TISSUE: NONTHYMIC LYMPHOMA, Dose [Carcinogen]: 1 G/KG 2/D FOR 5 D EVERY 4 WK FOR 3 COURSES OF TREATMENT, Promoter: NONE USED
  tumour outcome (control, treated, inhibition, significance): 8/137 (6%), 6/44 (14%), -133%, not calculated
Carcinogen: TRANS-5-AMINO-3-[2-(5-NITRO-2-FURYL)VINYL]-1,2,4-OXADIAZOLE;SQL8506, 28754-68-9, Carcinogen: TRANS-5-AMINO-3-[2-(5-NITRO-2-FURYL)VINYL]-1,2,4-OXADIAZOLE;SQL8506, 28754-68-9, Dose [Inhibitor]: 75 MG/KG 18 HR BEFORE THE 1ST DOSE OF EACH CARCINOGEN TREATMENT (STUDY DURATION: LIFETIME), Route [Inhibitor]: ORAL, Species: MOUSE, Strain/Sex: CD-1/FEMALE, Target Tissue: Type of Lesion: LYMPHOID TISSUE: THYMIC LYMPHOMA, Dose [Carcinogen]: 1 G/KG 2/D FOR 5 D EVERY 4 WK FOR 3 COURSES OF TREATMENT, Promoter: NONE USED
  tumour outcome (control, treated, inhibition, significance): 22/137 (16%), 5/44 (11%), 31%, not calculated
Carcinogen: TRANS-5-AMINO-3-[2-(5-NITRO-2-FURYL)VINYL]-1,2,4-OXADIAZOLE;SQL8506, 28754-68-9, Carcinogen: TRANS-5-AMINO-3-[2-(5-NITRO-2-FURYL)VINYL]-1,2,4-OXADIAZOLE;SQL8506, 28754-68-9, Dose [Inhibitor]: 75 MG/KG 18 HR BEFORE THE 1ST DOSE OF EACH CARCINOGEN TREATMENT (STUDY DURATION: LIFETIME), Route [Inhibitor]: ORAL, Species: MOUSE, Strain/Sex: CD-1/FEMALE, Target Tissue: Type of Lesion: STOMACH: SQUAMOUS CARCINOMA, Dose [Carcinogen]: 1 G/KG 2/D FOR 5 D EVERY 4 WK FOR 3 COURSES OF TREATMENT, Promoter: NONE USED
  tumour outcome (control, treated, inhibition, significance): 60/137 (44%), 26/44 (59%), -34%, not calculated

## S=C=Nc1ccccc1
Carcinogen: 4-(METHYLNITROSAMINO)-1-(3-PYRIDYL)-1-BUTANONE, 64091-91-4, Dose [Inhibitor]: 0, 5 UMOL 1/D FOR 4 D ADMINISTERED PRIOR TO CARCINOGEN DOSE (STUDY DURATION: 116 D), Route [Inhibitor]: GAVAGE, Species: MOUSE, Strain/Sex: STRAIN-A, Target Tissue: Type of Lesion: LUNG: ADENOMA, Dose [Carcinogen]: 10 UMOL IN SALINE ADMINISTERED 2 HR POST LAST AGENT DOSE, Promoter: NONE USED
  tumour outcome (control, treated, inhibition, significance): 100%, 100%, 0%
Carcinogen: 4-(METHYLNITROSAMINO)-1-(3-PYRIDYL)-1-BUTANONE, 64091-91-4, Dose [Inhibitor]: 0, 5 UMOL 1/D FOR 4 D ADMINISTERED PRIOR TO CARCINOGEN TREATMENT (STUDY DURATION: 116 D), Route [Inhibitor]: GAVAGE, Species: MOUSE, Strain/Sex: STRAIN A, Target Tissue: Type of Lesion: LUNG: ADENOMA, Dose [Carcinogen]: 10 UMOL ONCE, 2 HR AFTER FINAL DOSE OF INHIBITOR, Promoter: NONE USED
  tumour outcome (control, treated, inhibition, significance): 100%, 100%, 0%, not significant
Carcinogen: 4-(METHYLNITROSAMINO)-1-(3-PYRIDYL)-1-BUTANONE, 64091-91-4, Dose [Inhibitor]: 0, 5 UMOL/D FOR 4 CONSECUTIVE DAYS (STUDY DURATION: 17 WK), Route [Inhibitor]: GAVAGE, Species: MOUSE, Strain/Sex: STRAIN-A/FEMALE, Target Tissue: Type of Lesion: LUNG: ADENOMA, Dose [Carcinogen]: 10 UMOL ONCE 2 HR POST LAST AGENT DOSE, Promoter: NONE USED
  tumour outcome (control, treated, inhibition, significance): 100%, 100%, 0%, not significant
Carcinogen: 4-(METHYLNITROSAMINO)-1-(3-PYRIDYL)-1-BUTANONE, 64091-91-4, Dose [Inhibitor]: 5 UMOL/D FOR 4 CONSECUTIVE DAYS (STUDY DURATION: 16 WK), Route [Inhibitor]: GAVAGE, Species: MOUSE, Strain/Sex: STRAIN-A/FEMALE, Target Tissue: Type of Lesion: LUNG: ADENOMA, Dose [Carcinogen]: 10 UMOL ONCE 2 HR POST LAST AGENT DOSE, Promoter: NONE USED
  tumour outcome (control, treated, inhibition, significance): 30/30 (100%), 30/30 (100%), 0%
Carcinogen: 4-(N-NITROSOMETHYLAMINO)-1-(3-PYRIDYL)-1-BUTANONE, 64091-91-4, Dose [Inhibitor]: 0, 5 UMOL/D FOR 4 CONSECUTIVE DAYS (STUDY DURATION: 16.5 WK), Route [Inhibitor]: GAVAGE, Species: MOUSE, Strain/Sex: STRAIN-A/FEMALE, Target Tissue: Type of Lesion: LUNG: ADENOMA, Dose [Carcinogen]: 10 UMOL ONCE 2 HR POST LAST AGENT DOSE, Promoter: NONE USED
  tumour outcome (control, treated, inhibition, significance): 100%, 100%, 0%, not significant
Carcinogen: 7,12-DIMETHYLBENZ[A]ANTHRACENE, 57-97-6, Dose [Inhibitor]: 23 MG ONCE 4 HR PRIOR TO CARCINOGEN DOSE (STUDY DURATION: 18 WK), Route [Inhibitor]: INTRAGASTRIC, Species: RAT, Strain/Sex: SPRAGUE-DAWLEY/FEMALE, Target Tissue: Type of Lesion: MAMMARY GLAND: TUMOR, Dose [Carcinogen]: 12 MG IN 1 ML OLIVE OIL AT AGE 7 WK, Promoter: NONE USED
  tumour outcome (control, treated, inhibition, significance): 86%, 46%, 46%, p<0.05
